From patent US20030186997A1, “2,5-Dihydro-pyrazolo[3,4-d]pyrimidin-4-ones with an anticonsulsive action and methods for producing the same” (priority 2000, published 2003) come the findings set out here.

SMILES strings stand for the structures.

The nature of data set [1]: Octanol/water partition coefficient. It counts as physicochemical.
For data set [2], the system named is maximal electroshock. As to the kind of experiment: Anticonvulsant action, maximal electroshock (MES), mouse i.p. Format: in vivo. As to conditions: ip, read-out: Action in % of the protected animals. As for the experimental part: (§1) The compounds according to the invention were tested for their anticonvulsant action in vivo after i.p. administration to mice according to the international customary standard (Pharmac. Weekblad, Sc. Ed. 14, 132 (1992) and Antiepileptic Drugs, Third Ed., Raven Press, New York 1989) (Table 1). [table]
In general terms: The maximal electroshock test induces tonic seizures with an electrical stimulus.

Data set [3] has as its system s.c. pentetrazole. As to the kind of experiment: Anticonvulsant action, s.c. pentetrazole (PTZ), mouse i.p. It counts as in vivo. As to conditions: ip, read-out: Action in % of the protected animals. The protocol:
as §1

The nature of data set [4]: Neurotoxicity (NT50). It counts as in vivo. As to conditions: rat. The protocol:
(§2) This compound is also active in convulsion models using bicuculline and picrotoxin as convulsion-inducing cause. Compound 14 (5-(2-methylbenzyl)-2-methyl-2,5-dihydropyrazolo[3,4-d]pyrimidin-4-one) is likewise strongly anticonvulsant with a large therapeutic breadth (ED50 (rat p.o.) =9 mg/kg, NT50>300 mg/kg). Compound 21 has a similar pharmacological profile (ED50 (rat p.o.) =3 mg/kg, NT50>300 mg/kg).

In data set [5] the test system is maximal electroshock. As to the kind of experiment: Maximal electroshock in the rat, p.o. It counts as in vivo. As to conditions: po. As for the experimental part: as §2
Data set [6] has as its system bicuculline. Briefly: Convulsion model using bicuculline. Format: in vivo. The settings on record: bicuculline as convulsion-inducing cause. As for the experimental part:
as §2

Data set [7] relates to picrotoxin. It counts as in vivo. As for the experimental part:
as §2

In general, melting point refers to the temperature of the solid-liquid transition. In general, logP refers to the decadic logarithm of the partition coefficient of the neutral form, usually between octanol and water. Read a high logP as a more lipophilic compound. By ED50 is commonly meant the dose that gives a 50% effect, or the effect in half of the subjects. Read a low ED50 as an effect at a small dose.

For the compound `CC(C)n1cc2c(=O)n(Cc3c(F)cccc3Cl)cnc2n1` [Compound 43, 5-(2-chloro-6-fluorobenzyl)-2-isopropyl-2,5-dihydropyrazolo[3,4-d]pyrimidin-4-one], the melting point lay within 159 to 161 °C. For the same compound, the logP in data set [1] came to 1.88. Besides, the responders at 300 mg/kg in data set [2] (dose 300 mg/kg) was determined as 100%. Besides, the responders at 300 mg/kg in data set [3] is 33%.
The compound `O=c1c2c[nH]nc2ncn1Cc1ccc(Cl)cc1Cl` [Compound 4, 5-(2,4-dichlorobenzyl)-2,5-dihydropyrazolo[3,4-d]-pyrimidin-4-one] returned a melting point of 236 to 237 °C. Also, the logP in data set [1] turned out to be 1.96. Besides, in data set [2], the responders at 100 mg/kg came out at 100%. Also, in data set [3], the responders at 300 mg/kg amounted to 40%.
The compound `O=c1c2c[nH]nc2ncn1Cc1ccc(F)cc1` [Compound 3, 5-(4-fluorobenzyl)-2,5-dihydropyrazolo[3,4-d]pyrimidin-4-one] had a melting point of 260 to 261 °C. In data set [1], this compound showed a logP of 0.62. The responders at 100 mg/kg in data set [2] stood at 33%. In addition, the responders at 300 mg/kg in data set [3] was found to be 60%.
For the compound `O=c1c2c[nH]nc2ncn1Cc1ccccc1C(F)(F)F` [Compound 8, 5-(2-trifluoromethylbenzyl)-2,5-dihydropyrazolo[3,4-d]-pyrimidin-4-one], the melting point lay in the range of 168 to 171 °C. The compound further yielded a log partition coefficient (logP) in data set [1] of 0.78. Further, in data set [2], the responders at 100 mg/kg came to 67%. Also, in data set [3], the responders at 100 mg/kg was 20%.
In the case of `O=c1c2c[nH]nc2ncn1Cc1ccccc1Cl` [Compound 1, 5-(2-chlorobenzyl)-2,5-dihydropyrazolo[3,4-d]pyrimidin-4-one], the melting point lay within 186 to 187 °C. The logP in data set [1] was found to be 1.14. Moreover, in data set [4], the “NT50 (neurotoxicity)” value was above 500 mg/kg. Besides, the ED50 in data set [5] was found to be 18 mg/kg. For the same compound, the “activity in convulsion model” value in data set [6] is “active”. The responders at 30 mg/kg in data set [2] amounted to 100%. Further, in data set [7], the “activity in convulsion model” value is on record as “active”. Moreover, the responders at 100 mg/kg in data set [3] came out at 80%.
`Cc1ccccc1Cn1cnc2nn(C)cc2c1=O` [Compound 14, 5-(2-methylbenzyl)-2-methyl-2,5-dihydropyrazolo[3,4-d]-pyrimidin-4-one] yielded a melting point of 185 to 186 °C. In addition, the logP in data set [1] turned out to be 1.76. Further, it took a dose of 9 mg/kg to reach the 50% effect level in data set [5] (ED50). In data set [2], the responders at 30 mg/kg was determined as 100%. Also, the responders at 100 mg/kg in data set [3] worked out at 80%.
For the compound `COc1ccccc1Cn1cnc2nn(C)cc2c1=O` [Compound 17, 5-(2-methoxybenzyl)-2-methyl-2,5-dihydropyrazolo[3,4-d]-pyrimidin-4-one], the melting point fell in the range of 160 to 162 °C. Moreover, the logP in data set [1] came to 0.92. Moreover, the responders at 100 mg/kg in data set [2] was 100%. The responders at 300 mg/kg in data set [3] was found to be 100%.
Compound `Cn1cc2c(=O)n(Cc3c(F)cccc3F)cnc2n1` [Compound 21, 5-(2,6-difluorobenzyl)-2-methyl-2,5-dihydropyrazolo[3,4-d]pyrimidin-4-one] gave a melting point of 226 to 228 °C. The logP in data set [1] is 0.67. This compound came in with an ED50 in data set [5] of 3 mg/kg. Further, the responders at 30 mg/kg in data set [2] came to 100%. Moreover, the responders at 100 mg/kg in data set [3] was 80%.
